Assay results from ChEMBL document CHEMBL1124696, “Nucleoside peptides. 10. Synthesis and T-cell immunostimulatory properties of certain peptide derivatives of 6-azacadeguomycin” (1989).

Tests used:
Format in all cases: functional
Homo sapiens [1] = organism: Homo sapiens; assay: Mitogen-induced human lymphocyte proliferation measured by incorporation of [3H]thymidine in lymphocytes with Pokeweed mitogen at a concentration of 1/2500 ug with compound at 0.1 uM
Homo sapiens [2] = organism: Homo sapiens; assay: Mitogen-induced human lymphocyte proliferation measured by incorporation of [3H]thymidine in lymphocytes with Pokeweed mitogen at a concentration of 1/2500 ug with compound at 10 uM
Homo sapiens [3] = organism: Homo sapiens; assay: Mitogen-induced human lymphocyte proliferation measured by incorporation of [3H]thymidine in lymphocytes with Concanavalin A (Con A) at a concentration of 0.25 ug with out compound
Homo sapiens [4] = organism: Homo sapiens; assay: Mitogen-induced human lymphocyte proliferation measured by incorporation of [3H]thymidine in lymphocytes with Concanavalin A at a concentration of 0.25 ug with compound at 400 uM
Homo sapiens [5] = organism: Homo sapiens; assay: Mitogen-induced human lymphocyte proliferation measured by incorporation of [3H]thymidine in lymphocytes with Phytohemagglutininin at a concentration of 0.25 ug with compound at 10 uM
Homo sapiens [6] = organism: Homo sapiens; assay: Mitogen-induced human lymphocyte proliferation measured by incorporation of [3H]thymidine in lymphocytes with Concanavalin A (Con A) at a concentration of 0.25 ug with compound at 0.1 uM
Homo sapiens [7] = organism: Homo sapiens; assay: Mitogen-induced human lymphocyte proliferation measured by incorporation of [3H]thymidine in lymphocytes with Phytohemagglutininin at a concentration of 0.25 ug with compound at 1 uM
Homo sapiens [8] = organism: Homo sapiens; assay: Mitogen-induced human lymphocyte proliferation measured by incorporation of [3H]thymidine in lymphocytes with Pokeweed mitogen at a concentration of 1/2500 ug with compound at 400 uM
Homo sapiens [9] = organism: Homo sapiens; assay: Mitogen-induced human lymphocyte proliferation measured by incorporation of [3H]thymidine in lymphocytes with Pokeweed mitogen at a concentration of 1/2500 ug with compound at 50 uM
Homo sapiens [10] = organism: Homo sapiens; assay: Mitogen-induced human lymphocyte proliferation measured by incorporation of [3H]thymidine in lymphocytes with Concanavalin A (Con A) at a concentration of 0.25 ug with compound at 10 uM
Homo sapiens [11] = organism: Homo sapiens; assay: Mitogen-induced human lymphocyte proliferation measured by incorporation of [3H]thymidine in lymphocytes with Phytohemagglutininin at a concentration of 0.125 ug without compound
Homo sapiens [12] = organism: Homo sapiens; assay: Mitogen-induced human lymphocyte proliferation measured by incorporation of [3H]-thymidine in lymphocytes with Phytohemagglutininin at a concentration of 0.25 ug with compound at 0.1 uM
Homo sapiens [13] = organism: Homo sapiens; assay: Mitogen-induced human lymphocyte proliferation measured by incorporation of [3H]thymidine in lymphocytes with Pokeweed mitogen at a concentration of 1/2500 ug with compound at 1 uM.
Homo sapiens [14] = organism: Homo sapiens; assay: Mitogen-induced human lymphocyte proliferation measured by incorporation of [3H]thymidine in lymphocytes with Concanavalin A (Con A) at a concentration of 0.25 ug with compound at 1 uM
Homo sapiens [15] = organism: Homo sapiens; assay: Mitogen-induced human lymphocyte proliferation measured by incorporation of [3H]thymidine in lymphocytes with Phytohemagglutininin at a concentration of 0.25 ug with compound at 400 uM
Homo sapiens [16] = organism: Homo sapiens; assay: Mitogen-induced human lymphocyte proliferation measured by incorporation of [3H]thymidine in lymphocytes with Concanavalin A (Con A) at a concentration of 0.25 ug with compound at 50 uM
Homo sapiens [17] = organism: Homo sapiens; assay: Mitogen-induced human lymphocyte proliferation measured by incorporation of [3H]thymidine in lymphocytes with Pokeweed mitogen at a concentration of 1/2500 ug without compound
Homo sapiens [18] = organism: Homo sapiens; assay: Mitogen-induced human lymphocyte proliferation measured by incorporation of [3H]thymidine in lymphocytes with Phytohemagglutininin at a concentration of 0.25 ug with compound at 50 uM
Homo sapiens [19] = organism: Homo sapiens; assay: Mitogen-induced human lymphocyte proliferation measured by incorporation of [3H]thymidine in lymphocytes with Concanavalin A (Con A) at a concentration of 0.25 microg with compound at 10 uM
Homo sapiens [20] = organism: Homo sapiens; assay: Mitogen-induced human lymphocyte proliferation measured by incorporation of [3H]thymidine in lymphocytes with Pokeweed mitogen at a concentration of 1/2500 ug with out compound
Homo sapiens [21] = organism: Homo sapiens; assay: Mitogen-induced human lymphocyte proliferation measured by incorporation of [3H]thymidine in lymphocytes with Phytohemagglutininin at a concentration of 0.125 ug with compound at 0.1 uM
Homo sapiens [22] = organism: Homo sapiens; assay: Mitogen-induced human lymphocyte proliferation measured by incorporation of [3H]thymidine in lymphocytes with Phytohemagglutininin at a concentration of 0.125 ug with out compound
Homo sapiens [23] = organism: Homo sapiens; assay: Mitogen-induced human lymphocyte proliferation measured by incorporation of [3H]thymidine in lymphocytes with Phytohemagglutininin at a concentration of 0.125 ug with compound at 1 uM
Homo sapiens [24] = organism: Homo sapiens; assay: Mitogen-induced human lymphocyte proliferation measured by incorporation of [3H]thymidine in lymphocytes with Phytohemagglutininin at a concentration of 0.125 ug with compound at 10 uM
Homo sapiens [25] = organism: Homo sapiens; assay: Mitogen-induced human lymphocyte proliferation measured by incorporation of [3H]-thymidine in lymphocytes with Phytohemagglutininin at a concentration of 0.125 ug with compound at 50 uM
Homo sapiens [26] = organism: Homo sapiens; assay: Mitogen-induced human lymphocyte proliferation measured by incorporation of [3H]thymidine in lymphocytes with Phytohemagglutininin at a concentration of 0.125 ug with compound at 400 uM
Homo sapiens [27] = organism: Homo sapiens; assay: Mitogen-induced human lymphocyte proliferation measured by incorporation of [3H]thymidine in lymphocytes with Pokeweed mitogen at a concentration of 1/2500 ug with compound at 1 uM
Homo sapiens [28] = organism: Homo sapiens; assay: Mitogen-induced human lymphocyte proliferation measured by incorporation of [3H]thymidine in lymphocytes with Concanavalin A (Con A) at a concentration of 0.5 ug with compound at 10 uM
Homo sapiens [29] = organism: Homo sapiens; assay: Mitogen-induced human lymphocyte proliferation measured by incorporation of [3H]thymidine in lymphocytes with Concanavalin A at a concentration of 0.5 ug with compound at 400 uM
Homo sapiens [30] = organism: Homo sapiens; assay: Mitogen-induced human lymphocyte proliferation measured by incorporation of [3H]thymidine in lymphocytes with Concanavalin A (Con A) at a concentration of 0.5 ug with compound at 0.1 uM
Homo sapiens [31] = organism: Homo sapiens; assay: Mitogen-induced human lymphocyte proliferation measured by incorporation of [3H]thymidine in lymphocytes with Concanavalin A (Con A) at a concentration of 0.5 ug with compound at 1 uM
Homo sapiens [32] = organism: Homo sapiens; assay: Mitogen-induced human lymphocyte proliferation measured by incorporation of [3H]-thymidine in lymphocytes with Pokeweed mitogen at a concentration of 1/2500 ug with out compound
Homo sapiens [33] = organism: Homo sapiens; assay: Mitogen-induced human lymphocyte proliferation measured by incorporation of [3H]thymidine in lymphocytes with Concanavalin A (Con A) at a concentration of 0.5 ug with out compound
Homo sapiens [34] = organism: Homo sapiens; assay: Mitogen-induced human lymphocyte proliferation measured by incorporation of [3H]thymidine in lymphocytes with Concanavalin A (Con A) at a concentration of 0.5 ug with compound at 50 uM
Homo sapiens [35] = organism: Homo sapiens; assay: Mitogen-induced human lymphocyte proliferation measured by incorporation of [3H]-thymidine in lymphocytes with Pokeweed mitogen at a concentration of 1/2500 ug with compound at 1 uM
Homo sapiens [36] = organism: Homo sapiens; assay: Mitogen-induced human lymphocyte proliferation measured by incorporation of [3H]thymidine in lymphocytes with Phytohemagglutininin at a concentration of 0.25 ug with out compound
Homo sapiens [37] = organism: Homo sapiens; assay: Mitogen-induced human lymphocyte proliferation measured by incorporation of [3H]thymidine in lymphocytes with Phytohemagglutininin at a concentration of 0.25 ug with compound at 0.1 uM
Homo sapiens [38] = organism: Homo sapiens; assay: Mitogen-induced human lymphocyte proliferation measured by incorporation of [3H]thymidine in lymphocytes with Pokeweed mitogen at a concentration of 1/5000 ug with compound at 0.1 uM
Homo sapiens [39] = organism: Homo sapiens; assay: Mitogen-induced human lymphocyte proliferation measured by incorporation of [3H]thymidine in lymphocytes with Phytohemagglutininin at a concentration of 0.125 ug with compound at 50 uM
Homo sapiens [40] = organism: Homo sapiens; assay: Mitogen-induced human lymphocyte proliferation measured by incorporation of [3H]thymidine in lymphocytes with Pokeweed mitogen at a concentration of 1/5000 ug with compound at 10 uM
Homo sapiens [41] = organism: Homo sapiens; assay: Mitogen-induced human lymphocyte proliferation measured by incorporation of [3H]-thymidine in lymphocytes with Pokeweed mitogen at a concentration of 1/5000 ug with compound at 50 uM
Homo sapiens [42] = organism: Homo sapiens; assay: Mitogen-induced human lymphocyte proliferation measured by incorporation of [3H]thymidine in lymphocytes with Pokeweed mitogen at a concentration of 1/5000 ug with compound at 400 uM
Homo sapiens [43] = organism: Homo sapiens; assay: Mitogen-induced human lymphocyte proliferation measured by incorporation of [3H]thymidine in lymphocytes with Pokeweed mitogen at a concentration of 1/5000 ug with compound at 1 uM
Homo sapiens [44] = organism: Homo sapiens; assay: Mitogen-induced human lymphocyte proliferation measured by incorporation of [3H]thymidine in lymphocytes with Pokeweed mitogen at a concentration of 1/5000 ug with out compound

Row | Structure (SMILES) | Incorporation (Homo sapiens [1]) | Incorporation (Homo sapiens [2]) | Incorporation (Homo sapiens [3]) | Incorporation (Homo sapiens [4]) | Incorporation (Homo sapiens [5]) | Incorporation (Homo sapiens [6]) | Incorporation (Homo sapiens [7]) | Incorporation (Homo sapiens [8]) | Incorporation (Homo sapiens [9]) | Incorporation (Homo sapiens [14]) | Incorporation (Homo sapiens [15]) | Incorporation (Homo sapiens [16]) | Incorporation (Homo sapiens [18]) | Incorporation (Homo sapiens [21]) | Incorporation (Homo sapiens [22]) | Incorporation (Homo sapiens [23]) | Incorporation (Homo sapiens [24]) | Incorporation (Homo sapiens [26]) | Incorporation (Homo sapiens [27]) | Incorporation (Homo sapiens [32]) | also measured
1 | Nc1nc2c(c(C(=O)O)nn2C2O[C@H](CO)[C@@H](O)[C@H]2O)c(=O)[nH]1 (some centres not stated) | 35813 | 36867 | 21143 | 22619 | 32955 | 20186 | 28393 | 34537 | 34808 | 21319 | 29655 | 22446 | 31662 |  |  |  |  |  |  |  | Incorporation (Homo sapiens [10]): 27385; Incorporation (Homo sapiens [11]): 28436; Incorporation (Homo sapiens [12]): 25106; Incorporation (Homo sapiens [13]): 39189; Incorporation (Homo sapiens [17]): 35867
2 | NC(=O)[C@H](Cc1ccccc1)NC(=O)c1nn(C2O[C@H](CO)[C@@H](O)[C@H]2O)c2nc(N)[nH]c(=O)c12 (some centres not stated) | 39180 | 44634 | 27326 | 30812 |  | 24317 |  | 37204 | 40511 | 26510 |  | 27642 |  | 26149 | 38473 | 35042 | 54960 | 42771 | 41073 |  | Incorporation (Homo sapiens [19]): 29989; Incorporation (Homo sapiens [20]): 31047; Incorporation (Homo sapiens [25]): 53121
3 | NC(=O)CNC(=O)c1nn(C2O[C@H](CO)[C@@H](O)[C@H]2O)c2nc(N)[nH]c(=O)c12 (some centres not stated) | 44670 | 44370 |  |  |  |  |  | 40023 | 39719 |  |  |  |  | 27956 | 35075 | 32413 | 47343 | 66017 | 42288 | 39468 | Incorporation (Homo sapiens [28]): 46662; Incorporation (Homo sapiens [29]): 43649; Incorporation (Homo sapiens [30]): 43954; Incorporation (Homo sapiens [31]): 40503; Incorporation (Homo sapiens [33]): 43401; Incorporation (Homo sapiens [25]): 50056; Incorporation (Homo sapiens [34]): 44360
4 | NC(=O)CC[C@H](NC(=O)c1nn(C2O[C@H](CO)[C@@H](O)[C@H]2O)c2nc(N)[nH]c(=O)c12)C(N)=O (some centres not stated) | 46067 | 45049 | 25758 | 24167 | 48588 | 26181 | 50331 | 29854 | 44234 | 30068 | 39824 | 28119 | 43877 |  |  |  |  |  |  | 40326 | Incorporation (Homo sapiens [35]): 39260; Incorporation (Homo sapiens [36]): 57799; Incorporation (Homo sapiens [10]): 31799; Incorporation (Homo sapiens [12]): 49448
5 | N=C(N)NCCC[C@H](NC(=O)[C@H](Cc1ccccc1)NC(=O)c1nn(C2O[C@H](CO)[C@@H](O)[C@H]2O)c2nc(N)[nH]c(=O)c12)C(N)=O (some centres not stated) | 17344 | 18784 |  |  | 36688 |  | 46087 | 18394 | 19755 |  | 33862 |  | 37174 | 22401 | 23120 | 19743 | 36645 | 26854 | 18470 | 15723 | Incorporation (Homo sapiens [37]): 38673; Incorporation (Homo sapiens [38]): 11906; Incorporation (Homo sapiens [39]): 21841; Incorporation (Homo sapiens [36]): 35768; Incorporation (Homo sapiens [40]): 8734; Incorporation (Homo sapiens [28]): 41908; Incorporation (Homo sapiens [29]): 30792; Incorporation (Homo sapiens [41]): 9960; Incorporation (Homo sapiens [42]): 8214; Incorporation (Homo sapiens [30]): 43850; Incorporation (Homo sapiens [31]): 36088; Incorporation (Homo sapiens [33]): 35226; Incorporation (Homo sapiens [43]): 8437; Incorporation (Homo sapiens [44]): 7043; Incorporation (Homo sapiens [34]): 36977
